Measurements reported in PubChem BioAssay AID449725 (University of Pittsburgh Molecular Library Screening Center, 2010).
Calls of active or inactive are those of the source. How the calls were made is not given here.

Test system: IMR-90 human lung fibroblast viability counter screen
Test: cytotoxicity in human IMR-90 lung fibroblasts – cell-based, IC50, cytotoxicity control, dose response (AID 449725);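 further: 48 hour compound exposure before the viability read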

SMILES: COc1ccc(C(=O)Nc2cc(C)ccc2C(=O)O)cc1
- IC50: > 25 µM (inactive)

SMILES: O=c1c2cc(N3CCOCC3)ccc2sn1-c1ccccc1
- IC50: 20.9 µM

SMILES: O=c1cc(-c2ccccc2)sn1-c1ccccc1
- IC50: 13.4 µM

SMILES: COc1ccc(C(=O)Nc2cc(F)ccc2C(=O)O)cc1
- IC50: > 25 µM (inactive)

SMILES: CN(Cc1ccccc1)C(=O)Cn1sc2ccccc2c1=O
- IC50: 15.2 µM

SMILES: O=C(O)c1ccccc1NC(=O)c1ccccc1C(=O)O
- IC50: > 25 µM (inactive)

SMILES: COC(=O)c1ccc(Cl)cc1NC(=O)c1ccccc1OC
- IC50: > 25 µM (inactive)

SMILES: COc1ccc(C(=O)Nc2c(C(=O)O)ccc(Cl)c2Cl)cc1
- IC50: > 25 µM (inactive)

SMILES: O=c1c2cc(C(F)(F)F)ccc2sn1-c1ccccc1
- IC50: 12 µM

SMILES: COC(=O)c1ccc(Cl)cc1NC(=O)c1ccc(OC)cc1
- IC50: > 25 µM (inactive)

SMILES: Cc1ccc(NC(=O)Cn2sc3ccccc3c2=O)cc1
- IC50: 11 µM

SMILES: O=c1c2ccccc2on1-c1ccccc1
- IC50: > 25 µM (inactive)

SMILES: COc1ccc(C(=O)Nc2cc(Cl)ccc2C(=O)O)cc1
- IC50: > 25 µM (inactive)

SMILES: O=c1c2cc(F)ccc2sn1-c1ccc(Cl)cc1
- IC50: > 25 µM (inactive)

SMILES: CC(C(=O)Nc1ccccc1)n1sc2ccccc2c1=O (stereo unspecified)
- IC50: 16.3 µM

SMILES: O=C(Cn1sc2ccccc2c1=O)Nc1cccc(I)c1
- IC50: > 25 µM (inactive)

SMILES: COc1ccc(C(=O)Nc2cc(C(F)(F)F)ccc2C(=O)O)cc1
- IC50: > 25 µM (inactive)

SMILES: COc1ccc(C(=O)Nc2cc(Cl)ccc2C#N)cc1
- IC50: > 25 µM (inactive)

SMILES: N#Cc1ccccc1NC(=O)Cn1sc2ccccc2c1=O
- IC50: > 25 µM (inactive)

SMILES: CCCCCCCC(=O)Nc1cc(Cl)ccc1C(=O)O
- IC50: > 25 µM (inactive)

SMILES: COc1ccc(C(=O)NC(CC(=O)O)c2ccccc2)cc1 (stereo unspecified)
- IC50: > 25 µM (inactive)

SMILES: CC(=O)Nc1ccc2sn(-c3ccccc3)c(=O)c2c1
- IC50: 24.5 µM

SMILES: CC(C)(C)c1ccc(C(=O)Nc2cc(Cl)c(Cl)cc2C(=O)O)cc1
- IC50: > 25 µM (inactive)

SMILES: N#Cc1ccc2sn(-c3ccccc3)c(=O)c2c1
- IC50: > 25 µM (inactive)

SMILES: O=C1c2ccccc2S(=O)N1c1cccc(F)c1 (stereo unspecified)
- IC50: > 25 µM (inactive)

SMILES: CC(C)(C)c1ccc(C(=O)Nc2cc(Br)ccc2C(=O)O)cc1
- IC50: > 25 µM (inactive)

SMILES: CN(C)c1ccc(NC(=O)Cn2sc3ccccc3c2=O)cc1
- IC50: 18.4 µM

SMILES: O=c1c(O)c(-c2ccc(O)c(O)c2)oc2cc(O)cc(O)c12
- IC50: > 25 µM (inactive)

SMILES: COc1ccc(C(=O)Nc2cc(Cl)ccc2-c2noc(=O)[nH]2)cc1
- IC50: > 25 µM (inactive)

SMILES: COC(=O)c1ccc(Cl)cc1NC(=O)c1ccc(Cl)cc1
- IC50: > 25 µM (inactive)

SMILES: COc1ccc(C(=O)Nc2cc(-c3ccccc3)ccc2C(=O)O)cc1
- IC50: > 25 µM (inactive)
